{"source": "patent US8948863B2", "about": "“Photokinetic ocular drug delivery methods and apparatus” (priority 2009, dated 2015)", "key": {"[1]": {"assay": "Franz cell sclera tissue permeation, PODD (pulsed LED light) vs passive controls", "conditions": "for levels of MTX recovered from Franz recipient cell: p<0.05 vs passive controls", "experimental": "A traditional “up and down” vertical Franz cell skin perfusion apparatus as described above was adapted and used for this sclera tissue permeation model. […] Two wavelengths of light were selected of this facilitated permeation study. Samples of the Franz recipient solution were taken at 15, 30 and 60 minutes of photokinetic exposure and passive controls and analyzed by HPLC.\nFranz cells (PermeGear, Inc, Bethlehem Pa.) having an 11.28 mm diameter permeation area, 1.0 cm^2 were used in the MTX experiment. A photokinetic ocular drug delivery (PODD)-modified Franz cell testing device was configured so that it accommodated the placement of LEDs within the donor chamber. The cells were placed within an aluminum block heater 35.5° C. on a magnetic stir bar setup (Custom manufactured by PermeGear, Inc, Bethlehem Pa.).\nDiscrete wavelength LEDs were purchased from Roithner Lasertechnick GmbH, Vienna, Austria as follows: 351 nm, #RTL350-30; 370 nm, #RLS-UV370. Peak emitting wavelengths are ±10 nm at the 50% radiance output. The LEDs were driven by a square wave pulse generator built by the investigators for this study. The adjustable square wave pulse generator provided pulsed electrical energy set at 24 cycles per second (CPS) with a 50% pulse duration (ON 50%, OFF 50% of the time). Driver current to the LEDs was limited to or slightly below the manufacturers specified drive current level to avoid exogenous heat generation. […] A donor cell contains the test drug (in this example, methotrexate (MTX)) in a solvent formulation. The recipient cell is filled with a balance salt solution. Samples for chemical analysis are taken from the side arm 27 of the Franz apparatus as discussed above. Control cells are set up the same, but without the LED. LEDs are driven by a square wave pulse generator (not shown) at a voltage slightly less than the manufacture's specified voltage.\nOvine eyes were procured by enucleation within one hour after euthanasia and placed in tissue culture medium with antibiotics and antimycotics and refrigerated at 4° C. Sclera tissue was dissected from the eyes and placed between the donor and recipient chambers of the Franz apparatus. Sclera was stored for a maximum of 30 hours in the tissue culture at 4° C. before the start of the experiment.\nMethotrexate (MTX; (4-Amino-10-methylfolic acid hydrate); available from Sigma-Aldrich Corp., St. Louis, Mo.) was dissolved in a permeation enhancement carrier of water, 30% propylene glycol, 5% Ethyl Lactate, 0.1% Azone, and 0.75% hyaluronic acid as a gelling agent, with 0.1% neolone 850 as a preservative. An infinite donor sink model was used wherein 0.75 grams of the drug formulation (1.875 mg of each) was placed in the Franz donor cells. Hanks isotonic salt solution served as the Franz recipient cell fluid.\nHPLC analysis was performed according to a method developed in our lab. Briefly, a Beckman Coulter system consisting of 125 pumps, 508 auto sampler and 168 diode array detector was used with an XTerra RP-C18, 150×40 mm, 3 μm column. The analytes were eluted with a gradient mobile phase from 25-30% Methanol in HPLC grade water with 0.1% Trifluoroacetic Acid (TFA) and flow rate of 0.7 ml/min. 32 Karat™ software (Beckman Coulter, Inc.) was used for acquisition of chromatograms.\nThe Franz recipient cell balanced salt solution was analyzed by the HPLC method for MTX concentration."}, "[2]": {"assay": "Histological examination of Franz cell mounted sclera after PODD exposure", "design": "species or system ovine", "conditions": "MTX formulation, 60 minute exposure, 350 nm LED light", "description": "(§1) Sclera samples were taken and placed in formalin as follows: Normal control sclera with no exposure to drug or light, Franz cell 60 minute control drug only exposure and Franz cell 60 minute exposure to both drug and 350 nm LED light. Fixed slides were evaluated for structural integrity and gross appearance by a pathologist blinded as to the origin of the sample tissue.\nas §1, with “Normal” for “Sclera samples were taken and placed in formalin as follows: Normal”, “light were taken and placed in formalin.” for “light.”, “masked” for “blinded”"}, "[3]": {"conditions": "rabbit", "text": "Exogenous human insulin can be differentiated from the endogenous rabbit insulin; the human insulin FITC (fluorescein isothiocyanate) fluorescent tag further allows for tracking of the drug within the tissues.\nIn this series, rabbits were fitted with transscleral photokinetic device, such as shown in FIG. 1 of this disclosure, for one hour. […] Images were taken of the posterior optic disc, the area where the retina, optic nerve and blood vessels come together on the posterior segment of the eye."}, "[4]": {"assay": "Photokinetic transdermal permeation study", "type": "in vitro ADME, human", "conditions": "similar photokinetic conditions", "description": "Scleral tissue is more permeable than human skin. The practical upper molecular weight limit with the PODD system is unknown and may be determined by the specific molecular configuration rather than molecular weight per se."}}}
{"compound": "CN(Cc1cnc2nc(N)nc(N)c2n1)c1ccc(C(=O)N[C@@H](CCC(=O)O)C(=O)O)cc1", "note": "[MTX, 4-Amino-10-methylfolic acid hydrate]", "values": [{"measurement": "levels of MTX recovered from Franz recipient cell", "setting": "[1]; PODD 350 nm group, 24 CPS, 30 and 60 minute time points", "value": "significant"}, {"measurement": "levels of MTX recovered from Franz recipient cell", "setting": "[1]; PODD 370 nm group, 24 CPS, 15, 30 and 60 minute time points", "value": "significant"}, {"measurement": "total MTX flux (compared with the therapeutic level)", "setting": "[1]; PODD, up to 60 minutes, 1.0 cm^2 ovine sclera", "value": "< 400", "unit": "µg"}, {"measurement": "flux rate, 370 nm group compared to the 350 nm group", "setting": "[1]; all time points (15, 30, 60 minutes), 24 CPS", "value": "much higher flux rate"}, {"measurement": "MTX permeation through the scleral tissue, PODD cells", "setting": "[1]; both wavelengths of light tested (350 nm and 370 nm), 24 CPS, vs passive controls", "value": "improvement"}, {"measurement": "histological examination, PODD exposure compared to passive control and normal sclera", "setting": "[2]", "value": "no differences between the samples"}, {"measurement": "structural integrity of the sclera", "setting": "[2]", "value": "grossly intact and undamaged"}]}
{"compound": "FITC-labeled human insulin: human insulin modified at the N-terminus of the B-chain with an FITC conjugate/tag, 5733 Daltons, Invitrogen", "values": [{"measurement": "fluorescence in the optic disc, passive permeation", "setting": "[3]", "value": "did not show fluorescence"}, {"measurement": "fluorescence image of the optic disc after 1 hour of PODD", "setting": "[3]; in vivo", "value": "reached the posterior segment of the rabbit's eye"}, {"measurement": "fluorescence, contralateral eye", "setting": "[3]; in vivo", "value": "no fluorescence"}]}
{"compound": "hyaluronic acid", "values": [{"measurement": "flux rates through intact human skin", "setting": "[4]", "value": "significant flux rates"}]}
